Source: patent publication US20220281930A1, “COMPOSITIONS AND METHODS FOR THE TREATMENT OF PATHOLOGICAL PAIN AND ITCH” (DUKE UNIVERSITY, priority 2019, published 2022)

How the values were obtained:
KCC2 mRNA [1] = test: KCC2 mRNA in differentiated N2a cells transfected with δ-cat constructs; format: cell-based, mouse; conditions: δ-cat construct vs control transfection
Excerpt: (§1) Plasmid containing human δ-catenin (CTNND2, NM_001288717) open reading frame was obtained from GeneCopeia (EX-A4285-M02) and cloned into pCMV-ENTER vector (Origene PS100001). Site-directed mutagenesis using Phusion DNA Polymerase enzyme (Thermofisher F549L) in conjunction with complementary primers bearing the specific mutation were used to generate the S276A […] mutation S276A. PCR was followed by Dpn1 enzyme digestion to remove parental plasmid DNA. All constructs were verified by sequencing. pCS-CMV-tdTomato plasmid was obtained from Addgene (cat. #30530).
Total RNA was isolated from cultured cell samples using Directzol RNA miniprep kit (ZymoResearch). The protocol includes DNAse digestion to exclude genomic DNA from preparations. […] Gene expression was assessed by quantitative real-time PCR using 2×SYBR Green Master Mix (Qiagen) and a three-step cycling protocol (anneal at 60° C./elongate at 72° C., denature at 95° C.). […] The amount of target messenger RNA (mRNA) in the experimental group relative to that in the control was determined from the resulting fluorescence and threshold values (Ct) using the ΔΔCt method. βIII-tubulin was used as housekeeping gene.
Next, the question of whether δ-cat, when expressed as a spinal transgene in sensory relay neurons, will facilitate analgesia in nerve constriction injury was assessed. […]

KCC2 mRNA [2] = test: KCC2 mRNA RT-qPCR in microdissected spinal cord dorsal horn; format: in vivo, mouse; conditions: AAV9 i.t; vs tdTomato control
Protocol: oligodT-initiated reverse transcription of 1 μg total RNA, DNA-se treated, was subjected to RT-qPCR using primers specific for KCC2 for rat and KCC2 for human sequences, normalized for neuronal βIII-tubulin, as previously described (Yeo et al., 2009, J Neurosci 29:14652-14662). For cultured neurons, total RNA was extracted from pelleted cells, and for spinal cord tissue it was extracted from microdissected lumbar spinal cord dorsal horn.
With the aforementioned findings and in view of the SCDH as the likely site of analgesic action of KP (Coull et al., 2003, Nature 424:938-942; Gagnon et al., 2013, Nat Med 19:1524-1528), SCDH KCC2 expression and function in nerve injury and response to KP was assessed. […] To measure KCC2 mRNA, SCDH Rexed-layers I-II were microdissected with laser capture followed by RT-qPCR. SCDH KCC2 protein expression was measured morphometrically after KCC2 immunolabeling using SCDH laminae I-II as the region-of-interest (FIG. 5B).

nerve injury pain = test: Nerve constriction injury (PSNL) pain model, mechanical withdrawal; format: in vivo, mouse; conditions: AAV9-huSyn, 5×10^9 viral genomes i.t; vs tdTomato control; to d18
Protocol: For pain-related behavior, mechanical allodynia was assessed with von Frey filaments (Ugo Basile, Italy). The mice were placed on a 5×5-mm wire-mesh grid floor in individual compartments to avoid visual stimulation and allowed to adapt for 0.5 h prior to the von Frey test. The von Frey filament was then applied to the middle of the plantar surface of the hind paw with 5 g force. The withdrawal responses following the hind paw stimulation were measured at least three times, and the mechanical allodynia, which was defined as an increase in the number of withdrawal responses to the stimulation, was compared.
Thus, in vivo, KP functions as an analgesic when administered systemically in injury-related pain models.
Next, whether the analgesic effects of KP were mediated centrally at the spinal cord level was assessed.
Mechanical withdrawal was measured thresholds after nerve constriction injury (PSNL) (FIG. 12B and FIG. 12C). […] Thus, δ-cat(S276A) spinal transgenesis via AAV9 is sufficient to evoke analgesia after nerve constriction injury, to lesser degree also with δ-cat(WT). Importantly, δ-cat(S276A) spinal transgenesis was accompanied by increased expression of KCC2 in the SCDH. […] Moreover, our discovery points toward a genetically-encoded approach that can be developed for translation into clinical use as an alternative or complement to KP-related small molecules.

δ-cat = test: Nuclear transfer of transfected human δ-cat in N2a cells; format: cell-based, mouse; conditions: mutation vs δ-cat(WT), without KP
Excerpt: as §1
To investigate the relevance of δ-cat residue S276, N2a neural cells were studied because these cells transfect at higher efficiency than primary cortical neurons. In our cultures, N2a cells expressed neuronal ßIII-tubulin in elongated processes as determined by immune-labeling as an indicator of their neuronal differentiation. […] This increase in nuclear transfer was very similar to the trafficking we recorded in primary cortical neurons, thus validating the cell line. […] Of note, there was no increase of nuclear transfer of δ-cat(S276A) upon KP treatment (FIG. 8C and FIG. 8D).

δ-cat(S276A): human δ-catenin S276A mutant transgene (SEQ ID NO:32), as plasmid or AAV9 vector driven by human synapsin promoter
KCC2 mRNA expression (KCC2 mRNA [1]): slightly elevated | KCC2 mRNA in microdissected SCDH (KCC2 mRNA [2]): significantly increased | mechanical withdrawal thresholds after PSNL (nerve injury pain): Significantly less sensitization | nuclear transfer of the transfected construct (δ-cat): increases nuclear transfer
